Results taken from article PMC8318231, “Rate-of-Kill (RoK) assays to triage large compound sets for Chagas disease drug discovery: Application to GSK Chagas Box” (PLoS Neglected Tropical Diseases, 2021).

Legend:
[1] = tested on: T. cruzi intracellular amastigotes in H9c2 cells; test: Rate-of-Kill (RoK) high-content imaging assay, amastigotes per cell (AM/CELL) and curve descriptors; type: cell-based, Trypanosoma cruzi; parameters: key to ME_24h / ME_48h / ME_72h: % reduction in parasite burden (cidal response); t50pct_MCC50 / t50pct_Cmax: unit not given here; details: for ME_24h: 24h; for ME_48h: 48h; for ME_72h: 72h; for t50%_Cmax / tlag_Cmax / t50pct_Cmax: at Cmax; for ME_24h (%): maximum effect at 24 h; for ME_24h (%) / ME_48h (%) / ME_72h (%): RoK assay; for ME_48h (%): maximum effect at 48 h; for ME_72h (%): maximum effect at 72 h; for ME 24h (maximum effect at 24 hours, intracellular amastigotes): maximum percentage of parasite burden reduction reached by any concentration
Protocol: For this high-content intracellular imaging assay, H9c2 cells were seeded in 225 cm^2 T- FLASK in DMEM with 10% FBS for 4 h to allow attachment. T. cruzi trypomastigotes, collected at days 5 to 8 after infection from LLC-MK2 parasite infected cultures, were allowed to swim out for 4 h at 37°C from a centrifuged pellet (1,600 x g / 10 min). Trypomastigotes were then collected and counted in a CASY Cell Counter using the 60 μm capillary. Trypomastigotes, in supplemented DMEM, were added to H9c2 cultures in a multiplicity of infection (MOI) of 8 and incubated for 18 h. Cells were washed once with PBS before incubation of the infected H9c2 monolayer with trypsin (Life-Technologies) to detach cells from the flask. Cells were counted in a CASY Cell Counter, using the 150 μm capillary, and their density set at 5 x 10^4 cells/mL in supplemented DMEM. Infected H9c2 were dispensed into 384-well plates at 50 μL per well using a Multidrop Combi dispenser. Control wells used to determine a 100% parasitic growth (full 6th column of each plate) were left untreated, whereas not infected cells were added in the control wells used as 0% parasite growth (or 100% parasite growth inhibition; full 18th column of each plate). The four plates corresponding to each RoK assay were predispensed for the same mother plate. […] Cultures were then fixed and stained with 50 μL per well of a PBS solution containing 4% formaldehyde and 2 μM DRAQ5 DNA dye (BioStatus, UK). Then plates were read in a PerkinElmer Opera Phenix using a 20x objective, 3 fields per well. DRAQ5 signal was detected using 640 nm excitation laser and a 690/50 nm emission detection filter. Automated image analysis was performed with a script developed on Acapella High Content Imaging and Analysis Software (PerkinElmer). Two outputs were provided for each sample well: (1) number of host cells nuclei to determine drug-related cytotoxicity (aka H9c2) and (2) number of amastigotes per cell as infection level measurement (aka AM/CELL). Each output is plotted as a time course for each compound at every concentration. This assay was adapted from Alonso-Padilla et al. and Peña et al..
To identify and classify the different compounds, the number of amastigotes per cell (AM/CELL) raw data obtained in rate of kill assay are normalised using the average of C1 (infected cells) at time 4 hours as 0% effect and the average of C2 (non-infected cells) for each time as 100% effect, according to the following Eq 1: %CIDALRESPONSE=100*[Avg_C14h-RawData]/[Avg_C14h-Avg_C2] (1)
• ME (Maximum Effect) is the maximum percentage of parasite burden reduction reached by any compound concentration. Compounds that decrease the initial parasite load will show a positive value of ME, whereas compounds that allow the progression of infection will render a negative ME value. […] It is calculated for the MCC50 (t50%_MCC50) and for the maximum concentration (t50%_Cmax). […] The value of this parameter is not either interpolated or extrapolated, and it refers to the first experimental time-course point at which a 50% of effect is reached or exceeded. • tlag defines the time elapsed for one particular concentration to reduce parasite burden between two consecutive points at any moment of the time course. It is calculated for the MCC50 (tlag_MCC50) and for the maximum concentration (tlag_Cmax). The value of this parameter is not either interpolated or extrapolated, and it refers to the first experimental time-course point of a positive slope in the normalised plot (i.e. %Cidal_Response). • Cmin_Tox (Minimal CytoToxic Concentration) is the lowest compound concentration that is reducing the number of host mammalian cells below 50% of initial cell density. Cytotoxic compounds may mislead a bona fide antiparasitic action.

[2] = tested on: T. cruzi Tulahuen trypomastigotes; test: T. cruzi trypomastigote assay (Cell Titer-Glo viability, ATP luminescence); type: cell-based, Trypanosoma cruzi; details: for activity in trypomastigotes assay (in words): 48 and 72 hours; for Trypomastigotes pIC50 48 hours: 48 hours incubation; for Trypomastigotes pIC50 48 hours / Trypomastigotes pIC50 72 hours: pIC50 = -log10 IC50 in molar units; for Trypomastigotes pIC50 72 hours: 72 hours incubation; for 72 pIC50 (trypomastigotes, raw data of Fig 1D): 72 hours, plotted values, censored values given without sign; for 48 pIC50 / 72 pIC50: trypomastigote assay; for 48 pIC50: 48 h; for 72 pIC50: 72 h
Procedure, shortened: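 Tulahuen trypomastigotes from infected LLC-MK2 culture supernatants (days 5–8) plated at 5 × 10^4 per well in DMEM/2% FBS with compound at 5 μM single-shot final or in dose response. Viability by CellTiter-Glo ATP luminescence after 10 min at room temperature, normalised to no-cell (100%) and DMSO (0%) controls.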

SMILES	ME_24h ([1]; figure 5)	ME_48h ([1]; figure 5)	ME_72h ([1]; figure 5)	MCC50 ([1]; RoK curve descriptor)	MCCE ([1]; RoK curve descriptor)	AM/CELL NORM ([1]; Time 4, sheet figure 4 A)	AM/CELL NORM ([1]; Time 24, sheet figure 4 A)	AM/CELL NORM ([1]; Time 48, sheet figure 4 A)	tlag_Cmax [1]	t50pct_Cmax ([1]; figure 5)	tlag_Cmax ([1]; figure 5)	t50pct_MCC50 ([1]; at MCC50, figure 5)	tlag_MCC50 ([1]; at MCC50, figure 5)	MCCE ([1]; figure 5)	ME_24h (%) [1]	ME_48h (%) [1]	ME_72h (%) [1]	ME 24h (maximum effect at 24 hours, intracellular amastigotes) [1]	Trypomastigotes pIC50 48 hours [2]	Trypomastigotes pIC50 72 hours [2]	further results
CCCN(Cc1ccc(OC)c(OC)c1)Cc1cc(=O)c2c(C)cc(C)cc2[nH]1 [TCMDC-143331]	53.5839	70.4309	85.455	27.8 µM	1.9 µM	14.9494	52.9561	75.3164	4.0 h	24	4	48	4	1.852	53.6%	70.4%	85.5%	54.2116%	5.4	5.6	ME (maximum effect) in RoK assay (in words) [1]: high values in ME at the different times; tlag (in words) [1]: short tlag; AM/CELL NORM ([1]; Time 72, sheet figure 4 A): 72.8804; t50%_Cmax [1]: 24.0 h; t50%_MCC50 ([1]; at MCC50): 48.0 h; tlag_MCC50 ([1]; at MCC50): 4.0 h; MCC50 ([1]; figure 5, in µM): 27.7778; activity in trypomastigotes assay (in words) [2]: active
Cc1nn(C)c(Cl)c1CN(Cc1cccnc1)Cc1ccsc1 [TCMDC-143477]	-46.0078	-102.792	-13.578		0.6 µM	-6.323	-46.0078	-102.792	48.0 h	72	48	72	72	0.6173	-46.0%	-102.8%	-13.6%	-46.0078%	< 4.3	< 4.3	AM/CELL NORM ([1]; Time 72, sheet figure 4 A): -72.3369; MCC50 ([1]; figure 5): 50 µM; 72 pIC50 (trypomastigotes, raw data of Fig 1D) [2]: < 4.3; 48 pIC50 ([2]; figure 1A): < 4.3; 72 pIC50 ([2]; figure 1A): < 4.3; 72 pIC50 ([2]; figure 1B): < 4.3
O[C@H]1CC[C@H](Nc2nccc(-c3sc(C4CCOCC4)nc3-c3ccc(F)c(F)c3)n2)CC1 [TCMDC-143387]	-7.952	-1.621	23.2073		0.07 µM				24.0 h	72	24	72	72	0.06859	-8.0%	-1.6%	23.2%	-7.952%	4.5	< 4.3	AM/CELL NORM ([1]; Time 4, figure 4 A): 2.207; AM/CELL NORM ([1]; Time 24, figure 4 A): -7.952; AM/CELL NORM ([1]; Time 48, figure 4 A): -3.462; AM/CELL NORM ([1]; Time 72, figure 4 A): 23.2073; MCC50 ([1]; figure 5): 50 µM
CC(C)N(C(=O)CN1C(=O)C(N)C(=O)N(c2ccccc2)c2ccccc21)c1ccccc1 (stereo not drawn) [TCMDC-143071]	-154.934	-40.5762	63.3605	5.6 µM	0.6 µM	-6.592	-184.227	-40.5762	24.0 h	72	24	72	24	0.6173	-154.9%	-40.6%	63.4%	-154.934%	< 4.3	< 4.3	AM/CELL NORM ([1]; Time 72, sheet figure 4 A): 57.0597; t50%_Cmax [1]: 72.0 h; t50%_MCC50 ([1]; at MCC50): 72.0 h; tlag_MCC50 ([1]; at MCC50): 24.0 h; MCC50 ([1]; figure 5, in µM): 5.556; 72 pIC50 (trypomastigotes, raw data of Fig 1D) [2]: < 4.3; 48 pIC50 ([2]; figure 1A): < 4.3; 72 pIC50 ([2]; figure 1A): < 4.3; 72 pIC50 ([2]; figure 1B): < 4.3
CN(C)Cc1ccc(N2CCC(NS(=O)(=O)c3ccc(Cl)cc3)CC2)cc1 [TCMDC-143623]	-87.7558	-504.665	-765.031	1.9 µM	1.0 µM				38.0 h	60	38	72	48	1.029	-87.8%	-504.7%	-765.0%	25.2228%	4.5	4.4	ME (maximum effect) in RoK assay (in words) [1]: positive ME throughout all times; cidality in the RoK assay (in words) [1]: cidal; tlag (in words) [1]: short tlag times; AM/CELL NORM ([1]; Time 4, figure 4 A): -0.7307; AM/CELL NORM ([1]; Time 24, figure 4 A): -44.6697; AM/CELL NORM ([1]; Time 48, figure 4 A): 60.0074; AM/CELL NORM ([1]; Time 72, figure 4 A): 92.6225; t50%_Cmax [1]: 60.0 h; t50%_MCC50 ([1]; at MCC50): 72.0 h; tlag_MCC50 ([1]; at MCC50): 24.0 h; MCC50 ([1]; figure 5, in µM): 25.9259; activity in trypomastigotes assay (in words) [2]: poorly active
